Reference: patent publication US12077503B2, “Substituted cyclic amides and their use as herbicides” (FMC CORPORATION, priority 2015, dated 2024)

Assays:
Format in all cases: in vivo
[1] = tested on: ducksalad (Heteranthera limosa); assay: Test B flooded paddy test; conditions: Heteranthera limosa, Flood, 250 g ai/ha; scale of 0 to 100 where 0 is no effect and 100 is complete control; read-out: Ducksalad plant response rating
Method in brief: (§1)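 Response scored visually against untreated controls, 0 = no effect and 100 = complete control, 13–15 d after treatment in the greenhouse. Compounds added to paddy water held 3 cm above soil surface. Treatment given at 2-leaf stage.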

[2] = tested on: sedge, umbrella (small-flower umbrella sedge, Cyperus difformis); assay: Test B flooded paddy test; conditions: Cyperus difformis, Flood, 250 g ai/ha; scale of 0 to 100 where 0 is no effect and 100 is complete control; read-out: Sedge, Umbrella plant response rating
Method in brief: as §1

[3] = tested on: rice (Oryra sativa); assay: Test B flooded paddy test; conditions: Oryza sativa, Flood, 250 g ai/ha; scale of 0 to 100 where 0 is no effect and 100 is complete control; read-out: Rice plant response rating
Method in brief: as §1

[4] = tested on: barnyardgrass (Echinochloa crus-galli); assay: Test B flooded paddy test; conditions: Echinochloa crus-galli, Flood, 250 g ai/ha; scale of 0 to 100 where 0 is no effect and 100 is complete control; read-out: Barnyardgrass plant response rating
Method in brief: as §1

[5] = tested on: pigweed (Amaranthus retroflexus); assay: Test A preemergence; conditions: Amaranthus retroflexus, pre-emergence, 240 h; for pest or weed control at 125 g/ha: 125 g ai/ha, Preemergence, visual injury rating after approximately 10 d, read-out: Pigweed plant response rating (0 to 100 scale, 0 is no effect, 100 is complete control); for pest or weed control at 500 g/ha: 500 g ai/ha, preemergence, visual injury rating about 10 d after treatment, 0 to 100 scale (0 no effect, 100 complete control), read-out: Pigweed plant response rating
[6] = tested on: Kochia (Kochia scoparia); assay: Test A preemergence; conditions: Bassia scoparia, pre-emergence, 240 h; for pest or weed control at 125 g/ha: 125 g ai/ha, Preemergence, visual injury rating after approximately 10 d, read-out: Kochia plant response rating (0 to 100 scale, 0 is no effect, 100 is complete control); for pest or weed control at 500 g/ha: 500 g ai/ha, preemergence, visual injury rating about 10 d after treatment, 0 to 100 scale (0 no effect, 100 complete control), read-out: Kochia plant response rating
Method in brief: (§2)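 Each rating is a visual injury score from 0 to 100 given about 10 d after treatment, judged against untreated controls kept alongside in the greenhouse. In loam soil–sand blend, seeds got a preemergence directed soil spray, while postemergence plants were 2 to 10 cm tall at spraying.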

[7] = tested on: ryegrass, Italian (Italian ryegrass, Lolium multiflorum); assay: Test A preemergence; conditions: Lolium multiflorum, pre-emergence, 240 h; for pest or weed control at 125 g/ha: 125 g ai/ha, Preemergence, visual injury rating after approximately 10 d, read-out: Ryegrass, Italian plant response rating (0 to 100 scale, 0 is no effect, 100 is complete control); for pest or weed control at 500 g/ha: 500 g ai/ha, preemergence, visual injury rating about 10 d after treatment, 0 to 100 scale (0 no effect, 100 complete control), read-out: Ryegrass, Italian plant response rating
Method in brief: as §2

[8] = tested on: giant foxtail (Setaria faberii); assay: Test A preemergence; conditions: Setaria faberi, pre-emergence, 240 h; for pest or weed control at 125 g/ha: 125 g ai/ha, Preemergence, visual injury rating after approximately 10 d, read-out: Foxtail, Giant plant response rating (0 to 100 scale, 0 is no effect, 100 is complete control); for pest or weed control at 500 g/ha: 500 g ai/ha, preemergence, visual injury rating about 10 d after treatment, 0 to 100 scale (0 no effect, 100 complete control), read-out: Foxtail, Giant plant response rating
Method in brief: as §2

[9] = tested on: ragweed (common ragweed, Ambrosia elatior); assay: Test A preemergence; conditions: Ambrosia artemisiifolia, pre-emergence, 240 h; for pest or weed control at 125 g/ha: 125 g ai/ha, Preemergence, visual injury rating after approximately 10 d, read-out: Ragweed plant response rating (0 to 100 scale, 0 is no effect, 100 is complete control); for pest or weed control at 500 g/ha: 500 g ai/ha, preemergence, visual injury rating about 10 d after treatment, 0 to 100 scale (0 no effect, 100 complete control), read-out: Ragweed plant response rating
Method in brief: as §2

[10] = tested on: barnyardgrass (Echinochloa crus-galli); assay: Test A preemergence; conditions: Echinochloa crus-galli, pre-emergence, 240 h; for pest or weed control at 125 g/ha: 125 g ai/ha, Preemergence, visual injury rating after approximately 10 d, read-out: Barnyardgrass plant response rating (0 to 100 scale, 0 is no effect, 100 is complete control); for pest or weed control at 500 g/ha: 500 g ai/ha, preemergence, visual injury rating about 10 d after treatment, 0 to 100 scale (0 no effect, 100 complete control), read-out: Barnyardgrass plant response rating
Method in brief: as §2

[11] = tested on: blackgrass (Alopecurus myosuroides); assay: Test A postemergence; conditions: Alopecurus myosuroides, post-emergence, 240 h, 125 g ai/ha, Postemergence; visual injury after approximately 10 d; 0 to 100 scale where 0 is no effect and 100 is complete control; read-out: Plant response rating, Blackgrass
Method in brief: as §2

[12] = tested on: corn (Zea mays); assay: Test A postemergence; conditions: Zea mays, post-emergence, 240 h, 125 g ai/ha, Postemergence; visual injury after approximately 10 d; 0 to 100 scale where 0 is no effect and 100 is complete control
Method in brief: as §2

[13] = tested on: pigweed (Amaranthus retroflexus); assay: Test A postemergence; conditions: Amaranthus retroflexus, post-emergence, 240 h, 125 g ai/ha, Postemergence; visual injury after approximately 10 d; 0 to 100 scale where 0 is no effect and 100 is complete control; read-out: Plant response rating, Pigweed
Method in brief: as §2

[14] = tested on: Kochia (Kochia scoparia); assay: Test A postemergence; conditions: Bassia scoparia, post-emergence, 240 h, 125 g ai/ha, Postemergence; visual injury after approximately 10 d; 0 to 100 scale where 0 is no effect and 100 is complete control; read-out: Plant response rating, Kochia
Method in brief: as §2

[15] = tested on: Galium (catchweed bedstraw, Galium aparine); assay: Test A postemergence; conditions: Galium, post-emergence, 240 h, 125 g ai/ha, Postemergence; visual injury after approximately 10 d; 0 to 100 scale where 0 is no effect and 100 is complete control; read-out: Plant response rating, Galium
Method in brief: as §2

[16] = tested on: ryegrass, Italian (Italian ryegrass, Lolium multiflorum); assay: Test A postemergence; conditions: Lolium multiflorum, post-emergence, 240 h, 125 g ai/ha, Postemergence; visual injury after approximately 10 d; 0 to 100 scale where 0 is no effect and 100 is complete control; read-out: Plant response rating, Ryegrass, Italian
Method in brief: as §2

[17] = tested on: giant foxtail (Setaria faberii); assay: Test A postemergence; conditions: Setaria faberi, post-emergence, 240 h, 125 g ai/ha, Postemergence; visual injury after approximately 10 d; 0 to 100 scale where 0 is no effect and 100 is complete control; read-out: Plant response rating, Foxtail, Giant
Method in brief: as §2

[18] = tested on: ragweed (common ragweed, Ambrosia elatior); assay: Test A postemergence; conditions: Ambrosia artemisiifolia, post-emergence, 240 h, 125 g ai/ha, Postemergence; visual injury after approximately 10 d; 0 to 100 scale where 0 is no effect and 100 is complete control; read-out: Plant response rating, Ragweed
Method in brief: as §2

[19] = tested on: wheat (Triticum aestivum); assay: Test A postemergence; conditions: Triticum aestivum, post-emergence, 240 h, 125 g ai/ha, Postemergence; visual injury after approximately 10 d; 0 to 100 scale where 0 is no effect and 100 is complete control; read-out: Plant response rating, Wheat
Method in brief: as §2

[20] = tested on: barnyardgrass (Echinochloa crus-galli); assay: Test A postemergence; conditions: Echinochloa crus-galli, post-emergence, 240 h, 125 g ai/ha, Postemergence; visual injury after approximately 10 d; 0 to 100 scale where 0 is no effect and 100 is complete control; read-out: Plant response rating, Barnyardgrass
Method in brief: as §2

Row | SMILES | pest or weed control at 250 g/ha [1] [%] | pest or weed control at 250 g/ha [2] [%] | pest or weed control at 250 g/ha [3] [%] | pest or weed control at 250 g/ha [4] [%] | pest or weed control at 125 g/ha [5] [%] | pest or weed control at 500 g/ha [5] [%] | pest or weed control at 125 g/ha [6] [%] | pest or weed control at 500 g/ha [6] [%] | pest or weed control at 125 g/ha [7] [%] | pest or weed control at 500 g/ha [7] [%] | pest or weed control at 125 g/ha [8] [%] | pest or weed control at 500 g/ha [8] [%] | pest or weed control at 125 g/ha [9] [%] | pest or weed control at 500 g/ha [9] [%] | pest or weed control at 125 g/ha [10] [%] | pest or weed control at 500 g/ha [10] [%] | pest or weed control at 125 g/ha [11] [%] | Corn plant response rating (crop injury, 0 = no effect, 100 = complete kill) at 125 g/ha [12] [%] | pest or weed control at 125 g/ha [13] [%] | pest or weed control at 125 g/ha [14] [%] | further results
1 | CC(C)Oc1ccc([C@H]2CN(C)C(=O)[C@@H]2C(=O)Nc2ccccc2F)cc1 [Compound 952] | 40 | 0 | 0 | 0 | 0 | 0 | 30 | 30 | 0 | 0 | 80 | 90 | 0 | 0 | 50 | 90 | 0 | 0 | 0 | 0 | pest or weed control at 125 g/ha [15]: 0%; pest or weed control at 125 g/ha [16]: 0%; pest or weed control at 125 g/ha [17]: 50%; pest or weed control at 125 g/ha [18]: 0%; plant injury at 125 g/ha [19]: 0%; pest or weed control at 125 g/ha [20]: 60%
2 | CC(C)Oc1ccc([C@H]2CN(C)C(=O)[C@@H]2C(=O)Nc2cccc(F)c2F)cc1 [Compound 953] | 40 | 0 | 0 | 20 | 0 | 0 | 60 | 60 | 0 | 60 | 90 | 100 | 0 | 0 | 90 | 90 | 0 | 0 | 0 | 30 | pest or weed control at 125 g/ha [15]: 20%; pest or weed control at 125 g/ha [16]: 0%; pest or weed control at 125 g/ha [17]: 90%; pest or weed control at 125 g/ha [18]: 0%; plant injury at 125 g/ha [19]: 0%; pest or weed control at 125 g/ha [20]: 90%
